How the values were obtained:
Format in all cases: in vivo, mongrel adult dogs
[1] = test system: arterial mean blood pressure; assay: Effects on arterial mean blood pressure
Procedure: (§1) All experiments were made on male and female thoractomized mongrel adult dogs weighing about 10 kg. under anesthesia with pentobarbital sodium. Compounds A, D, E and F were suspended in 0.2% CMC solution, Compound B dissolved in hydrochloric acid solution (pH 6), and Compound C and active placebo being dissolved in physiological saline solution. Animals were administered the drug intravenously on brachiuma with either test compound or active placebo.
(§2) Arterial blood pressure was measured by pressure transducer (Nippon Koden MPU-0.5) connected with the cannula inserted from exposed carotid artery into aorta. Aortic blood flow was determined by means of electromagnetic flow meter (Nippon Koden MF-5) mounted at the origin of the aorta. Coronary sinus out flow and coronary sinus oxygen tension were assessed by means of electromagnetic flow meter (Nippon Koden MF-5) and P02 macro electrode (Beokmann Moder 160-C), respectively using Morawitz cannulization technique. Heart rate was measured by cardiotachometer (Nippon Koden RT-2) synchronized with systolic blood pressure of aorta.

aortic blood flow = assay: Effects on aortic blood flow
Procedure: as §1, §2

coronary sinus out flow = assay: Effects on coronary sinus out flow
Procedure: as §1, §2

## COc1ccc(C(C#N)N2CCN(CC(=O)N3CCCC3)CC2)cc1OC (stereo not shown) [Compound C]
[1]; 2.0 mg/kg i.v., 1 min
  Changes (%) of basal values, arterial mean blood pressure: +0.8%
[1]; 2.0 mg/kg i.v., 5 min
  Changes (%) of basal values, arterial mean blood pressure: 0%
[1]; 2.0 mg/kg i.v., 10 min
  Changes (%) of basal values, arterial mean blood pressure: 0%
[1]; 2.0 mg/kg i.v., 20 min
  Changes (%) of basal values, arterial mean blood pressure: 0%
[1]; 2.0 mg/kg i.v., 30 min
  Changes (%) of basal values, arterial mean blood pressure: 0%
[1]; 2.0 mg/kg i.v., 40 min
  Changes (%) of basal values, arterial mean blood pressure: 0%
[1]; 2.0 mg/kg i.v., imm.
  Changes (%) of basal values, arterial mean blood pressure: -4.2%
[1]; 6.0 mg/kg i.v., 1 min
  Changes (%) of basal values, arterial mean blood pressure: -3.9%
[1]; 6.0 mg/kg i.v., 5 min
  Changes (%) of basal values, arterial mean blood pressure: -1.6%
[1]; 6.0 mg/kg i.v., 10 min
  Changes (%) of basal values, arterial mean blood pressure: -0.7%
[1]; 6.0 mg/kg i.v., 20 min
  Changes (%) of basal values, arterial mean blood pressure: -3.6%
[1]; 6.0 mg/kg i.v., 30 min
  Changes (%) of basal values, arterial mean blood pressure: -2.5%
[1]; 6.0 mg/kg i.v., 40 min
  Changes (%) of basal values, arterial mean blood pressure: -1.3%
[1]; 6.0 mg/kg i.v., imm.
  Changes (%) of basal values, arterial mean blood pressure: -12.1%
[1]; 20.0 mg/kg i.v., 1 min
  Changes (%) of basal values, arterial mean blood pressure: -17.1%
[1]; 20.0 mg/kg i.v., 5 min
  Changes (%) of basal values, arterial mean blood pressure: -18.8%
[1]; 20.0 mg/kg i.v., 10 min
  Changes (%) of basal values, arterial mean blood pressure: -22.2%
[1]; 20.0 mg/kg i.v., 20 min
  Changes (%) of basal values, arterial mean blood pressure: -27.2%
[1]; 20.0 mg/kg i.v., 30 min
  Changes (%) of basal values, arterial mean blood pressure: -28.0%
[1]; 20.0 mg/kg i.v., 40 min
  Changes (%) of basal values, arterial mean blood pressure: -26.1%
[1]; 20.0 mg/kg i.v., imm.
  Changes (%) of basal values, arterial mean blood pressure: -29.0%
[1]; i.v., anesthetized dogs
  Effects on arterial mean blood pressure (in words): hypotensive effects being proportioned to their doses which were of long duration
Aortic blood flow; 2.0 mg/kg i.v., 1 min
  Changes (%) of basal values, aortic blood flow: +2.3%
Aortic blood flow; 2.0 mg/kg i.v., 5 min
  Changes (%) of basal values, aortic blood flow: +0.7%
Aortic blood flow; 2.0 mg/kg i.v., 10 min
  Changes (%) of basal values, aortic blood flow: -1.5%
Aortic blood flow; 2.0 mg/kg i.v., 20 min
  Changes (%) of basal values, aortic blood flow: -0.3%
Aortic blood flow; 2.0 mg/kg i.v., 30 min
  Changes (%) of basal values, aortic blood flow: -0.1%
Aortic blood flow; 2.0 mg/kg i.v., 40 min
  Changes (%) of basal values, aortic blood flow: 0%
Aortic blood flow; 2.0 mg/kg i.v., imm.
  Changes (%) of basal values, aortic blood flow: +1.1%
Aortic blood flow; 6.0 mg/kg i.v., 1 min
  Changes (%) of basal values, aortic blood flow: +3.4%
Aortic blood flow; 6.0 mg/kg i.v., 5 min
  Changes (%) of basal values, aortic blood flow: +1.1%
Aortic blood flow; 6.0 mg/kg i.v., 10 min
  Changes (%) of basal values, aortic blood flow: 0%
Aortic blood flow; 6.0 mg/kg i.v., 20 min
  Changes (%) of basal values, aortic blood flow: -1.0%
Aortic blood flow; 6.0 mg/kg i.v., 30 min
  Changes (%) of basal values, aortic blood flow: -2.0%
Aortic blood flow; 6.0 mg/kg i.v., 40 min
  Changes (%) of basal values, aortic blood flow: -1.1%
Aortic blood flow; 6.0 mg/kg i.v., imm.
  Changes (%) of basal values, aortic blood flow: +8.5%
Aortic blood flow; 20.0 mg/kg i.v., 1 min
  Changes (%) of basal values, aortic blood flow: +6.2%
Aortic blood flow; 20.0 mg/kg i.v., 5 min
  Changes (%) of basal values, aortic blood flow: +4.8%
Aortic blood flow; 20.0 mg/kg i.v., 10 min
  Changes (%) of basal values, aortic blood flow: +1.3%
Aortic blood flow; 20.0 mg/kg i.v., 20 min
  Changes (%) of basal values, aortic blood flow: -7.1%
Aortic blood flow; 20.0 mg/kg i.v., 30 min
  Changes (%) of basal values, aortic blood flow: -11.9%
Aortic blood flow; 20.0 mg/kg i.v., 40 min
  Changes (%) of basal values, aortic blood flow: -8.3%
Aortic blood flow; 20.0 mg/kg i.v., imm.
  Changes (%) of basal values, aortic blood flow: +15.8%
Aortic blood flow; i.v., anesthetized dogs
  Effects on aortic blood flow (in words): an increase in blood flow immediately after administration, followed by a decrease in blood flow
Coronary sinus out flow; 2.0 mg/kg i.v., 1 min
  Changes(%) of basal values, coronary sinus out flow: +4.7%
Coronary sinus out flow; 2.0 mg/kg i.v., 5 min
  Changes(%) of basal values, coronary sinus out flow: +4.9%
Coronary sinus out flow; 2.0 mg/kg i.v., 10 min
  Changes(%) of basal values, coronary sinus out flow: +3.2%
Coronary sinus out flow; 2.0 mg/kg i.v., 20 min
  Changes(%) of basal values, coronary sinus out flow: +2.1%
Coronary sinus out flow; 2.0 mg/kg i.v., 30 min
  Changes(%) of basal values, coronary sinus out flow: +1.6%
Coronary sinus out flow; 2.0 mg/kg i.v., 40 min
  Changes(%) of basal values, coronary sinus out flow: +1.1%
Coronary sinus out flow; 2.0 mg/kg i.v., imm.
  Changes(%) of basal values, coronary sinus out flow: +17.8%
Coronary sinus out flow; 6.0 mg/kg i.v., 1 min
  Changes(%) of basal values, coronary sinus out flow: +50.7%
Coronary sinus out flow; 6.0 mg/kg i.v., 5 min
  Changes(%) of basal values, coronary sinus out flow: +28.6%
Coronary sinus out flow; 6.0 mg/kg i.v., 10 min
  Changes(%) of basal values, coronary sinus out flow: +19.4%
Coronary sinus out flow; 6.0 mg/kg i.v., 20 min
  Changes(%) of basal values, coronary sinus out flow: +18.2%

Source: patent US4068070A, “α-Cyanoamine compounds and a process for producing the same” (Fuji Chemical Industry Co., Ltd., priority 1974, dated 1978)
